Reference: BindingDB's records for doi:10.1021/jm00063a004 (Cnrs-Cercoa, 1993)

Molecular target: Trypsin (Sus scrofa) (UniProt P00761)
Experiment: Apparent binding constant against porcine trypsin

Chain of Trypsin (Sus scrofa) (P00761 whole entry, looked up): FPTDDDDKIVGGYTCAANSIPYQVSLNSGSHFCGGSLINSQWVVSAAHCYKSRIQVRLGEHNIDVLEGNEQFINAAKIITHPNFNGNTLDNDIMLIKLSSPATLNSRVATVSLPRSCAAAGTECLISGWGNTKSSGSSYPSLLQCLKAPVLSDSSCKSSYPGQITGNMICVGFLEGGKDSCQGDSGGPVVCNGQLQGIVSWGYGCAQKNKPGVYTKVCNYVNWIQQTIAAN

- Ki: 20 µM
Structure (SMILES): N=C(N)NCCCC1NC(=O)CNC(=O)c2cc(ccc2CBr)NC1=O (stereo unspecified) [N-[3-(11-Bromomethyl-3,6,9-trioxo-2,5,8-triaza-bicyclo[8.3.1]tetradeca-1(13),10(14),11-trien-4-yl)-propyl]-guanidine]
